According to PMC9800739, “Epigenetic drugs in somatostatin type 2 receptor radionuclide theranostics and radiation transcriptomics in mouse pheochromocytoma models” (Theranostics, 2023):

Tests used:
SSTR2 [1] = details: cited from earlier work; for SSTR2 expression (effect): BON-1 cells, monotherapies and combined application; for SSTR2 gene expression (effect): QGP-1 cells
Source text: HDAC and DNMT inhibitors can have different impacts depending on the cellular background. For example, in QGP-1 cells, DAC induced, but VPA inhibited SSTR2 gene expression.

MTT tumors = experiment: Tumor growth of MTT allografts; assay type: in vivo, mouse; details: PET cohorts; for Vtumor, ET start: day 0 baseline, mean ± SEM; for Vtumor, ET start + 4 d: day 4, mean ± SEM
Procedure: (§1) During anesthesia, animals were continuously warmed at 37°C. […] Animals were sacrificed using CO2 inhalation and cervical dislocation. […]
(§2) 70 1.1 Preparation of epigenetic drugs
(§3) 71 For in vitro application, VPA was freshly dissolved in cell culture medium and added to the
(§4) 72 cells at final concentrations between 10‒5 and 10‒2 mol/L. DAC was dissolved in H2O to obtain
(§5) 73 a 10‒4 mol/L stock solution that was stored at ‒20 °C. For each experiment, aliquots of the DAC
(§6) 74 stock were thawed and added to the cells at final concentrations between 10‒8 and 10‒5 mol/L.
(§7) 75 For in vivo application, VPA was dissolved at 0.26 mol/L in Dulbecco’s phosphate-buffered
(§8) 76 saline. DAC was dissolved at 0.04 mol/L in acetic acid (9.6 mol/L) to obtain a stock solution
(§9) 77 that was further diluted to 6.6×10‒4 mol/L in Dulbecco’s phosphate buffered. […]
(§10) 88 1.3 Tumor volumes in animal cohorts
(§11) 89 Animals with higher initial tumor volume were specifically included in cohorts that received
(§12) 90 epigenetic drugs in order to compensate for the growth-reducing effects of ET and to match
(§13) 91 tumor volumes as closely as possible across cohorts at the time of radiopharmaceutical injection

MPC tumors = experiment: Tumor growth of MPC allografts; assay type: in vivo, mouse; details: PET cohorts; for Vtumor, ET start: day 0 baseline, mean ± SEM; for Vtumor, ET start + 4 d: day 4, mean ± SEM
Procedure: as §1, §2, §3, §4, §5, §6, §7, §8, §9, §10, §11, §12, §13

[2] = intraperitoneal doses applied; cited from earlier work
Source text: The estimated human equivalent doses corresponded to 20‒30% of the clinically applied tumor-suppressive doses in patients, [45]. Lower doses were used, since we focused on the epigenetic modulation effects rather than the cytotoxic effects of VPA and DAC.

SSTR2 [3] = system: SSTR2; set-up: method as in PMID 26211366; details: neuroendocrine tumor models; cited from earlier work
[4] = system: MPC and MTT allograft mice; experiment: Biodistribution / retention of [64Cu]Cu-DOTA-TATE; assay type: in vivo, mouse; details: DAC-treated animals; no relationship with SUV changes in tumors
Procedure: Radiotracer was injected as described for PET imaging. Mice were sacrificed 60 min after radiotracer injection, organs were excised and weighted, and activity in tissue samples was measured using the gamma counter Wizard (PerkinElmer, Waltham, MA, USA). Standardized uptake values were determined.
107 (30%), muscle (0%), kidneys (25%), and liver (35%).
116 attenuation. Images were post-processed and analyzed using ROVER (ABX). Three-
118 kidneys (15%), and liver (25%).
119 1.6 Sstr2 promoter methylation analysis
122 Bisulfite Kit (Qiagen, Hilden, Germany). Bisulfite-converted DNA was amplified using a
Amplicon size (195bp) was confirmed
125 Switzerland). Electropherograms were compared to PCR products amplified from bisulfite-
127 an unmethylated 900bp-DNA fragment. The latter was generated by amplification of genomic
129 of primers are provided in (Table S 2).

BON‑1 xenografts = system: BON‑1 xenografts; set-up: method as in PMID 27363833; details: after treatment with DAC; cited from earlier work
SSTR2 [5] = target: T1, SSTR2 (Mus musculus, UniProt P30875); experiment: Immunoblotting of SSTR2 in cells after epigenetic treatment; assay type: cell-based
T1 construct: endogenous in cells; host or cells: MPC and MTT mouse pheochromocytoma cells (cell homogenates), untreated or treated with VPA + DAC
Procedure: Cells were seeded into collagen-coated microplates or collagen-coated flasks 24 h before epigenetic treatment (ET) start and treated twice (24 h interval) with VPA and DAC, as single and combination doses, respectively. Treatment effects were investigated two to six days (d) after final ET. Preparation of epigenetic drugs is reported in Supplemental Information 1.1.
Cells seeded into collagen-coated flasks (2.5×10^4/cm^2) were harvested three days after treatment start by incubation with Dulbecco's phosphate-buffered saline containing 2 mmol/L EDTA at 4 °C. Cell pellets were frozen and stored at -70°C. Frozen tumor tissue obtained from allograft mice was cut into 4 × 4 mm pieces.
Protein extraction from cells and tissues, gel electrophoresis, and immunoblotting was performed as described previously with some modifications. In brief, tissue homogenization was performed using the gentleMACS™ dissociator (Miltenyi Biotech, Bergisch Gladbach, Germany). Immunodetection of proteins was performed using the recombinant primary antibodies anti-SSTR2 [UMB1] (Abcam, Cambridge, UK), anti-CHGA [C-20] (Santa Cruz Biotechnology, Heidelberg, Germany), and anti-ACTB [A5316] (Sigma-Aldrich). Densitometric analysis of protein bands was performed using ImageQuant TL (GE Healthcare, Chicago, IL, USA).

T1 sequence (P30875 whole entry): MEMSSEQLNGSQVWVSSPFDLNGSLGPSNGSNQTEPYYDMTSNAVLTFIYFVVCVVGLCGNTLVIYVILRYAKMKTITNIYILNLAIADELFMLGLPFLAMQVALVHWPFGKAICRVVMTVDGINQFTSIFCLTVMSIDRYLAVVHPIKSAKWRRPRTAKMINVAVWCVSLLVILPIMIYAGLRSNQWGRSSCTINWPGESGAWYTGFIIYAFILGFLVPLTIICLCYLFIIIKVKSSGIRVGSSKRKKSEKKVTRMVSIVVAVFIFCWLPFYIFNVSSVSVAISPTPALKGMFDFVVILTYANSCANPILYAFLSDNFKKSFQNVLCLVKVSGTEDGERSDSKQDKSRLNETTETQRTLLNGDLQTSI

Row | Structure (SMILES) | SSTR2 expression (effect) (SSTR2 [1]) | SSTR2 gene expression (effect) (SSTR2 [1]) | stimulating effects on SSTR2 expression and [111In]In-DOTA-TATE uptake, reversibility (SSTR2 [1]; one day after VPA withdrawal) | Vtumor, ET start (MTT tumors) | Vtumor, ET start + 4 d (MTT tumors) | Vtumor, ET start (MPC tumors) | Vtumor, ET start + 4 d (MPC tumors) | time for serum levels to normalize (VPA) [2] | SSTR2 stimulation (effect) (SSTR2 [3]) | activity retention in the liver, effect [4] | increase in [68Ga]Ga-DOTA-TATE uptake (BON‑1 xenografts) | induction of SSTR2 protein levels and radiotracer uptake, comparison (SSTR2 [5]; MPC and MTT models) | SSTR2 up-regulation compared to controls (SSTR2/ACTB) (SSTR2 [5]; MPC cells, DAC 10^-6 mol/L, final ET + 2 d)
1 | CCCC(CCC)C(=O)O [VPA, valproic acid] | increased | inhibited | largely reversible one day after VPA withdrawal | 0.14 ± 0.05 cm3 | 0.35 ± 0.05 cm3 | 0.27 ± 0.13 cm3 | 0.46 ± 0.23 cm3 | eight | stimulate SSTR2 |  |  |  | 
2 | Nc1ncn([C@H]2C[C@H](O)[C@@H](CO)O2)c(=O)n1 [DAC, 5-Aza-2'-deoxycytidine] | increased | induced |  | 0.23 ± 0.07 cm3 | 0.24 ± 0.06 cm3 | 0.39 ± 0.16 cm3 | 0.57 ± 0.18 cm3 |  |  | significantly higher in DAC-treated animals | approximately 2 fold | more effectively compared to VPA | 5.3 fold
